# Measurements taken from patent US4261892A, “2,4,6-Tris-(substituted-amino)-s-triazines” (American Cyanamid Company, priority 1979, dated 1981).
# Where two headings read alike, the source gives them in different places.
# Test system: Adjuvant Arthritis In Rats
# Assay: Adjuvant-induced arthritis in rats (chronic inflammation accompanied by joint destruction)
# Format: in vivo, Royal Hart, Wistar strain rats
# Conditions: for inhibition in vivo at 50 mg/kg / inhibition in vivo at 25 mg/kg / inhibition in vivo at 100 mg/kg / inhibition in vivo at 18.8 mg/kg / inhibition in vivo at 37.5 mg/kg / inhibition in vivo at 75 mg/kg / inhibition in vivo at 150 mg/kg: Rattus norvegicus
# Procedure: Groups of three Royal Hart, Wistar strain rats weighing 200±10 grams each were injected intradermally in the right hind paw with Freund's adjuvant (dried human tubercle bacilli in a mineral oil vehicle) at a dose of 2 mg./kg. of body weight. […] On the 14th and 21st day post challenge the diameter of the injected paw (primary lesion) was measured by micrometer caliper. The volume of inflamed paws were estimated from these measurements and the results are expressed as percent inhibition of swelling as compared to controls. At the same time, the other inflamed sites, such as ears, paws and tail (secondary lesions) were observed and each rat was graded as to degree of inflammation and swelling present. The grading is based on a scale of 0 to 24 where 0 represents a complete absence of induced arthritic nodules and 24 represents the maximum degree of inflammation. The mean grade for each treated group is calculated and the effects of each compound are expressed as percent inhibition of the control grade.
# [1] = po, 336 h, read-out: % Inhibition of Swelling (primary lesion) Day 14
# [2] = po, 504 h, read-out: % Inhibition of Swelling (primary lesion) Day 21
# [3] = oral 50 mg./kg. once daily days 0-13, Day 14
# [4] = oral 50 mg./kg. once daily days 0-13, Day 21
# [5] = oral 50 mg./kg. once daily days 0-13
# [6] = oral 25 mg./kg. once daily days 0-13, Day 14
# [7] = oral 25 mg./kg. once daily days 0-13, Day 21
# [8] = oral 100 mg./kg. once daily days 0-13, Day 14
# [9] = oral 100 mg./kg. once daily days 0-13, Day 21
# [10] = 336 h, oral 50 mg./kg. once daily days 0-13, Day 14, read-out: % Inhibition of Swelling (primary lesion) Day 14
# [11] = 504 h, oral 50 mg./kg. once daily days 0-13, Day 21, read-out: % Inhibition of Swelling (primary lesion) Day 21
# [12] = oral 18.8 mg./kg. once daily days 0-13, Day 14
# [13] = oral 18.8 mg./kg. once daily days 0-13, Day 21
# [14] = oral 37.5 mg./kg. once daily days 0-13, Day 14
# [15] = oral 37.5 mg./kg. once daily days 0-13, Day 21
# [16] = oral 75 mg./kg. once daily days 0-13, Day 14
# [17] = oral 75 mg./kg. once daily days 0-13, Day 21
# [18] = oral 150 mg./kg. once daily days 0-13, Day 14
# [19] = oral 150 mg./kg. once daily days 0-13, Day 21
smiles,measurement,setting,value
"CC(C)(C)CC(C)(C)Nc1nc(NC(C)(C)CC(C)(C)C)nc(N2CC3CCC(CC3)C2)n1 [3-[4,6-bis(1,1,3,3-tetramethylbutylamino)-s-triazin-2-yl]-3-azabicyclo[3.2.2]nonane]",inhibition in vivo at 50 mg/kg,[1],59%
same,inhibition in vivo at 50 mg/kg,[2],23%
same,Mean Weight Gain (grams) Day 14,[3],76 grams
same,Mean Weight Gain (grams) Day 21,[4],67 grams
same,Dead/Treated at 21 Days,[5],2/18
"CC(C)(C)C(C)(C)Nc1nc(NC(C)(C)C(C)(C)C)nc(N2CC3CCC(CC3)C2)n1 [3-{4,6-bis[(1,1,2,2-tetramethylpropyl)amino]-s-triazin-2-yl}-3-azabicyclo[3.2.2]nonane]",inhibition in vivo at 25 mg/kg,[1],42%
same,inhibition in vivo at 50 mg/kg,[1],58%
same,inhibition in vivo at 100 mg/kg,[1],74%
same,inhibition in vivo at 25 mg/kg,[2],24%
same,inhibition in vivo at 50 mg/kg,[2],34%
same,inhibition in vivo at 100 mg/kg,[2],41%
same,% Inhibition of Control Grade (secondary lesion) Day 14,[6],44%
same,Mean Weight Gain (grams) Day 14,[6],74 grams
same,% Inhibition of Control Grade (secondary lesion) Day 21,[7],12%
same,Mean Weight Gain (grams) Day 21,[7],70 grams
same,Dead/Treated at 21 Days,oral 25 mg./kg. once daily days 0-13,1/18
same,% Inhibition of Control Grade (secondary lesion) Day 14,[3],48%
same,Mean Weight Gain (grams) Day 14,[3],56 grams
same,% Inhibition of Control Grade (secondary lesion) Day 21,[4],20%
same,Mean Weight Gain (grams) Day 21,[4],58 grams
same,Dead/Treated at 21 Days,[5],0/36
same,% Inhibition of Control Grade (secondary lesion) Day 14,[8],69%
same,Mean Weight Gain (grams) Day 14,[8],73 grams
same,% Inhibition of Control Grade (secondary lesion) Day 21,[9],45%
same,Mean Weight Gain (grams) Day 21,[9],62 grams
same,Dead/Treated at 21 Days,oral 100 mg./kg. once daily days 0-13,1/18
"CC(C)(C)C(C)(C)Nc1nc(NC2C3CC4CC(C3)CC2C4)nc(NC(C)(C)C(C)(C)C)n1 (centres unmarked) [N^2-2-adamantyl-N^4,N^6-bis(1,1,2,2-tetramethylpropyl)melamine]",inhibition in vivo at 50 mg/kg,[10],79%
same,inhibition in vivo at 50 mg/kg,[11],83%
same,Mean Weight Gain (grams) Day 14,[3],148 grams
same,Mean Weight Gain (grams) Day 21,[4],181 grams
same,Dead/Treated at 21 Days,[5],1/3
"CC(C)(C)Nc1nc(NC(C)(C)C)nc(N2CC3CCC(CC3)C2)n1 [3-[4,6-bis(tert-butylamino)-s-triazin-2-yl]-3-azabicyclo[3.2.2]nonane]",inhibition in vivo at 50 mg/kg,[1],61%
same,inhibition in vivo at 50 mg/kg,[2],22%
same,Mean Weight Gain (grams) Day 14,[3],87 grams
same,Mean Weight Gain (grams) Day 21,[4],69 grams
same,Dead/Treated at 21 Days,[5],1/9
"CC(C)(C)CC(C)(C)Nc1nc(Nc2ccc(F)cc2)nc(N2CC3CCC(CC3)C2)n1 [3-[4-p-fluoroanilino-6-(1,1,3,3-tetramethylbutylamino)-s-triazin-2-yl]-3-azabicyclo[3.2.2]nonane]",inhibition in vivo at 50 mg/kg,[1],32%
same,inhibition in vivo at 50 mg/kg,[2],18%
same,Mean Weight Gain (grams) Day 14,[3],68 grams
same,Mean Weight Gain (grams) Day 21,[4],50 grams
same,Dead/Treated at 21 Days,[5],1/18
"CC(C)(C)C(C)(C)Nc1nc(N[C@H]2C[C@@H]3CC[C@H]2C3)nc(NC(C)(C)C(C)(C)C)n1 (relative stereo) [N^2-(exo[2.2.1]norbornyl)-N^4, N^6-bis(1,1,2,2-tetramethylpropyl)melamine]",inhibition in vivo at 50 mg/kg,[10],49%
same,inhibition in vivo at 50 mg/kg,[11],24%
same,Mean Weight Gain (grams) Day 14,[3],97 grams
same,Mean Weight Gain (grams) Day 21,[4],93 grams
same,Dead/Treated at 21 Days,[5],0/3
CCCCC1C(=O)N(c2ccccc2)N(c2ccccc2)C1=O [Phenylbutazone],inhibition in vivo at 18.8 mg/kg,"336 h, oral 18.8 mg./kg. once daily days 0-13, Day 14, read-out: % Inhibition of Swelling (primary lesion) Day 14",31%
same,inhibition in vivo at 37.5 mg/kg,"336 h, oral 37.5 mg./kg. once daily days 0-13, Day 14, read-out: % Inhibition of Swelling (primary lesion) Day 14",56%
same,inhibition in vivo at 75 mg/kg,"336 h, oral 75 mg./kg. once daily days 0-13, Day 14, read-out: % Inhibition of Swelling (primary lesion) Day 14",62%
same,inhibition in vivo at 150 mg/kg,"336 h, oral 150 mg./kg. once daily days 0-13, Day 14, read-out: % Inhibition of Swelling (primary lesion) Day 14",75%
same,inhibition in vivo at 18.8 mg/kg,"504 h, oral 18.8 mg./kg. once daily days 0-13, Day 21, read-out: % Inhibition of Swelling (primary lesion) Day 21",7%
same,inhibition in vivo at 37.5 mg/kg,"504 h, oral 37.5 mg./kg. once daily days 0-13, Day 21, read-out: % Inhibition of Swelling (primary lesion) Day 21",14%
same,inhibition in vivo at 75 mg/kg,"504 h, oral 75 mg./kg. once daily days 0-13, Day 21, read-out: % Inhibition of Swelling (primary lesion) Day 21",28%
same,inhibition in vivo at 150 mg/kg,"504 h, oral 150 mg./kg. once daily days 0-13, Day 21, read-out: % Inhibition of Swelling (primary lesion) Day 21",44%
same,% Inhibition of Control Grade (secondary lesion) Day 14,[12],4%
same,Mean Weight Gain (grams) Day 14,[12],50 grams
same,% Inhibition of Control Grade (secondary lesion) Day 21,[13],8%
same,Mean Weight Gain (grams) Day 21,[13],45 grams
same,Dead/Treated at 21 Days,oral 18.8 mg./kg. once daily days 0-13,2/21
same,% Inhibition of Control Grade (secondary lesion) Day 14,[14],18%
same,Mean Weight Gain (grams) Day 14,[14],53 grams
same,% Inhibition of Control Grade (secondary lesion) Day 21,[15],13%
same,Mean Weight Gain (grams) Day 21,[15],53 grams
same,Dead/Treated at 21 Days,oral 37.5 mg./kg. once daily days 0-13,5/39
same,% Inhibition of Control Grade (secondary lesion) Day 14,[16],27%
same,Mean Weight Gain (grams) Day 14,[16],51 grams
same,% Inhibition of Control Grade (secondary lesion) Day 21,[17],15%
same,Mean Weight Gain (grams) Day 21,[17],50 grams
same,Dead/Treated at 21 Days,oral 75 mg./kg. once daily days 0-13,2/39
same,% Inhibition of Control Grade (secondary lesion) Day 14,[18],54%
same,Mean Weight Gain (grams) Day 14,[18],40 grams
same,% Inhibition of Control Grade (secondary lesion) Day 21,[19],31%
same,Mean Weight Gain (grams) Day 21,[19],50 grams
same,Dead/Treated at 21 Days,oral 150 mg./kg. once daily days 0-13,2/27
"CC(C)(C)CC(C)(C)Nc1nc(NC(C)(C)C(C)(C)C)nc(N2CC3CCC(CC3)C2)n1 [3-[4-(1,1,3,3-tetramethylbutylamino)-6-[(1,1,2,2-tetramethylpropyl)amino]-s-triazin-2-yl]-3-azabicyclo[3.2.2]nonane]",inhibition in vivo at 50 mg/kg,[1],74%
same,inhibition in vivo at 50 mg/kg,[2],42%
same,Mean Weight Gain (grams) Day 14,[3],66 grams
same,Mean Weight Gain (grams) Day 21,[4],91 grams
same,Dead/Treated at 21 Days,[5],0/12
"CC(C)(C)C(C)(C)Nc1nc(NC23CC4CC(CC(C4)C2)C3)nc(NC(C)(C)C(C)(C)C)n1 [N^2-1-adamantyl-N^4,N^6-bis(1,1,2,2-tetramethylpropyl)melamine]",inhibition in vivo at 50 mg/kg,[10],47%
same,inhibition in vivo at 50 mg/kg,[11],17%
same,Mean Weight Gain (grams) Day 14,[3],94 grams
same,Mean Weight Gain (grams) Day 21,[4],89 grams
same,Dead/Treated at 21 Days,[5],1/12
"CCCCNc1nc(N2CC3CCC(CC3)C2)nc(N2CC3CCC(CC3)C2)n1 [3,3'-(6-butylamino-s-triazin-2,4-diyl)bis-3-azabicyclo[3.2.2]nonane]",inhibition in vivo at 50 mg/kg,[1],46%
same,inhibition in vivo at 50 mg/kg,[2],32%
same,Mean Weight Gain (grams) Day 14,[3],82 grams
same,Mean Weight Gain (grams) Day 21,[4],107 grams
same,Dead/Treated at 21 Days,[5],2/12
